Source: patent US10577373B2, “TYK2 inhibitors and uses thereof” (Nimbus Lakshmi, Inc., priority 2017, dated 2020)
Read-outs that look alike come from different tables or passages of the source.

Key:
[1] = system: IL-12 induced STAT4 phophorylation mediated by Tyk2/JAK2 (heterodimeric complex); experiment: IL-12 Induced pSTAT4 in Human PBMC; assay type: cell-based; settings: 1.7 ng/mL IL-12
Excerpt: The IL-12 Induced pSTAT4 assay evaluates the inhibition of IL-12 induced STAT4 phophorylation mediated by Tyk2/JAK2 (heterodimeric complex).

[2] = system: GM-CSF induced STAT5 phosphorylation mediated by the JAK2/JAK2 homdimeric complex; experiment: GM-CSF Induced pSTAT5 in Human PBMC; settings: GM-CSF 5 ng/mL for 20 minutes, pSTAT5
Excerpt: Human PBMC are isolated from buffy coat and are stored frozen for assays as needed.

[3] = Homo sapiens, PBMC, 20 min, read-out: PBMC_GMCSF_pSTAT5 IC50, human PBMC
[4] = read-out: PBMC_GMCSF_pSTAT5 IC50, human PBMC

| SMILES | IC50 [1] [µM] | IC50 [2, 3] [µM] | IC50 [2, 4] [µM] |
| --- | --- | --- | --- |
| CNc1cc(Nc2cccc(N3CCOC3=O)n2)nc2c(C(=O)N[C@H]3C[C@H]3F)cnn12 [I-236] | < 0.1 | > 2.5 |  |
| CNc1cc(Nc2cccn(-c3ccc(C4CC4)nn3)c2=O)nc2c(C(=O)N[C@H]3C[C@H]3F)cnn12 [I-165] | < 0.1 | > 2.5 |  |
| CNc1cc(-c2cn(C(C)C)c3ncccc23)nc2c(C(=O)N[C@@H]3CC[C@H]3O)cnn12 (stereo in doubt) [I-586, N-((1R,2R)-2-hydroxycyclobutyl)-5-(1-isopropyl-1H-pyrrolo[2,3-b]pyridin-3-yl)-7-(methylamino)pyrazolo[1,5-a]pyrimidine-3-carboxamide] | < 0.1 |  | > 50 |
| [2H]C([2H])([2H])Oc1ncccc1Nc1cc(NC)n2ncc(C(=O)N[C@@H]3CCC[C@@H](O)C3)c2n1 [I-499] | < 0.1 | > 50 |  |
| CNc1cc(Nc2cccn(-c3ccc(F)cn3)c2=O)nc2c(C(=O)NC3CCC3)cnn12 [I-238] | < 0.1 | > 50 |  |
| CNc1cc(Nc2cccnc2OC2CC2)nc2c(C(=O)NCC3(CO)CC3)cnn12 [I-426] | < 0.1 | > 50 |  |
| CNc1cc(Nc2cccc(N3CCO[C@]4(CCOC4)C3)n2)nc2c(C(=O)NC3CC3)cnn12 [I-827] | 0.1 to 0.5 | > 50 |  |
| CNc1cc(Nc2cccnc2OC)nc2c(C(=O)N[C@@H]3CCC[C@H]3O)cnn12 [I-423, N-((1R,2R)-2-hydroxycyclopentyl)-5-((2-methoxypyridin-3-yl)amino)-7-(methylamino)pyrazolo[1,5-a]pyrimidine-3-carboxamide] | < 0.1 | > 50 |  |
| CNc1cc(Nc2cc(F)cc(F)c2F)nc2c(C(=O)NC3CC3)cnn12 [I-5] | < 0.1 | > 50 |  |
| [2H]C([2H])([2H])Nc1cc(Nc2cccnc2OC)nc2c(C(=O)N[C@@H]3C[C@@H]3F)cnn12 (stereo in doubt) [I-374, N-((1R,2S)-2-fluorocyclopropyl)-5-((2-methoxypyridin-3-yl)amino)-7-((methyl-d3)amino)pyrazolo[1,5-a]pyrimidine-3-carboxamide] | < 0.1 | > 50 |  |
| CNc1cc(Nc2cc(Cl)cn(-c3ccnc(C)n3)c2=O)nc2c(C(=O)N[C@H]3C[C@H]3F)cnn12 [I-317] | < 0.1 | > 2.5 |  |
| CNc1cc(Nc2cc(Cl)cn([C@H]3CCCOC3)c2=O)nc2c(C(=O)NC3CC3)cnn12 [I-782] | < 0.1 | > 50 |  |
| CNc1cc(Nc2cc(F)cn(-c3cnn(C)c3)c2=O)nc2c(C(=O)N[C@H]3C[C@H]3F)cnn12 [I-381] | < 0.1 | > 12.5 |  |
| CNc1cc(Nc2cccn(-c3cnco3)c2=O)nc2c(C(=O)N[C@@H]3C[C@@H]3F)cnn12 [I-762] | < 0.1 | > 2.5 |  |
| CNc1cc(Nc2cccn([C@H]3CC[C@H](OC)CC3)c2=O)nc2c(C(=O)N[C@@H]3CC[C@H]3O)cnn12 [I-635] | < 0.1 | > 50 |  |
| CNc1cc(Nc2cc(F)cn(-c3ccccn3)c2=O)nc2c(C(=O)N[C@H]3C[C@H]3F)cnn12 [I-194] | < 0.1 | > 12.5 |  |
| CNc1cc(Nc2cccn(-c3ccccn3)c2=O)nc2c(C(=O)N[C@@H]3CC[C@H]3OC)cnn12 [I-908, N-((1R,2R)-2-methoxycyclobutyl)-7-(methylamino)-5-((2-oxo-2H-[1,2′-bipyridin]-3-yl)amino)pyrazolo[1,5-a]pyrimidine-3-carboxamide] | < 0.1 |  | > 50 |
| CNc1cc(Nc2cccn(-c3cccnc3)c2=O)nc2c(C(=O)N[C@@H]3C[C@@H]3F)cnn12 [I-748] | < 0.1 | > 2.5 |  |
| CNc1cc(Nc2cccn(C3CCC4(CC3)OCCO4)c2=O)nc2c(C(=O)N[C@@H]3C[C@@H]3F)cnn12 [I-415, N-((1R,2S)-2-fluorocyclopropyl)-7-(methylamino)-5-((2-oxo-1-(1,4-dioxaspiro 14.51 decan-8-yl)-1,2-dihydropyridin-3-yl)amino)pyrazolo[1,5-a]pyrimidine-3-carboxamide] | < 0.1 | > 50 |  |
| CNc1cc(Nc2cccnc2OC(F)F)nc2c(C(=O)N[C@H]3C[C@H]3F)cnn12 [I-153] | < 0.1 | > 12.5 |  |
| CNc1cc(Nc2cccn(C3CC4(COC4)C3)c2=O)nc2c(C(=O)N[C@@H]3C[C@@H]3F)cnn12 [I-551, N-((1R,2S)-2-fluorocyclopropyl)-7-(methylamino)-5-((2-oxo-1-(2-oxaspiro[3.3]heptan-6-yl)-1,2-dihydropyridin-3-yl)amino)pyrazolo[1,5-a]pyrimidine-3-carboxamide] | < 0.1 | > 2.5 |  |
| CNc1cc(Nc2cccn([C@H]3CC[C@@H]3O)c2=O)nc2c(C(=O)N[C@@H]3C[C@@H]3F)cnn12 [I-916] | < 0.1 | > 50 |  |
| CNc1cc(Nc2cccnc2OC)nc2c(C(=O)N[C@H]3CC[C@@H]3O)cnn12 [I-395] | < 0.1 |  | > 12.5 |
| CNc1cc(Nc2cc(Cl)cn([C@H]3CCCN(C)C3)c2=O)nc2c(C(=O)N[C@@H]3C[C@@H]3F)cnn12 [I-854] | < 0.1 | > 50 |  |

| SMILES | IC50 [1] [µM] | IC50 [2, 3] [µM] | IC50 [2, 4] [µM] |
| --- | --- | --- | --- |
| CNc1cc(Nc2cccn([C@@H]3CCC[C@H](OC)C3)c2=O)nc2c(C(=O)NC3CC3)cnn12 [I-621] | < 0.1 | > 50 |  |
| CNc1cc(-c2cn(C3CC3)c3ncccc23)nc2c(C(=O)NC3CC3)cnn12 [I-960, N-cyclopropyl-5-(1-cyclopropyl-1H-pyrrolo[2,3-b]pyridin-3-yl)-7-(methylamino)pyrazolo[1,5-a]pyrimidine-3-carboxamide] | < 0.1 | > 50 |  |
| CNc1cc(Nc2cccn(C(C)C)c2=O)nc2c(C(=O)N[C@@H]3CC[C@H]3O)cnn12 [I-918] | < 0.1 | > 50 |  |
| CNc1cc(Nc2cccc([C@@H]3CCCOC3)n2)nc2c(C(=O)N[C@H]3C[C@H]3F)cnn12 [I-562] | < 0.1 | > 50 |  |
| CNc1cc(Nc2cccnc2OC)nc2c(C(=O)NC3CCC3)cnn12 [I-4] | < 0.1 | > 12.5 |  |
| CNc1cc(Nc2cccnc2OC)nc2c(C(=O)NO)cnn12 [I-710, N-hydroxy-5-((2-methoxypyridin-3-yl)amino)-7-(methylamino)pyrazolo[1,5-a]pyrimidine-3-carboxamide] | 0.1 to 0.5 | > 50 |  |
| CNc1cc(Nc2cccn(-c3ncccc3F)c2=O)nc2c(C(=O)NCC(C)(C)CO)cnn12 [I-510] | < 0.1 | > 50 |  |
| CNc1cc(Nc2cc(F)cnc2OC(C)C)nc2c(C(=O)N[C@H]3C[C@H]3F)cnn12 [I-211] | 0.1 to 0.5 | > 50 |  |
| CNc1cc(Nc2cccn([C@H]3CC[C@H](OC)CC3)c2=O)nc2c(C(=O)N[C@H]3CC[C@H]3O)cnn12 [I-539] | < 0.1 | > 50 |  |
| CNc1cc(Nc2cccnc2OC)nc2c(C(=O)N[C@@H]3CC[C@H]3O)cnn12 (stereo in doubt) [I-363, N-((1R,2R)-2-hydroxycyclobutyl)-5-((2-methoxypyridin-3-yl)amino)-7-(methylamino)pyrazolo[1,5-a]pyrimidine-3-carboxamide] | < 0.1 |  | > 50 |
| CNc1cc(Nc2cccn([C@H]3CC[C@](C)(OC)CC3)c2=O)nc2c(C(=O)N[C@@H]3CC[C@@H]3O)cnn12 [I-670, N-(2-hydroxycyclobutyl)-5-((1-((1R,4S)-4-methoxy-4-methylcyclohexyl)-2-oxo-1,2-dihydropyridin-3-yl)amino)-7-(methylamino)pyrazolo[1,5-a]pyrimidine-3-carboxamide] | < 0.1 |  | > 50 |
| CNc1cc(Nc2cccn(-c3ncc(OC)cc3F)c2=O)nc2c(C(=O)N[C@H]3C[C@H]3F)cnn12 [I-673] | < 0.1 | > 50 |  |
| CNc1cc(Nc2cccc3ocnc23)nc2c(C(=O)NCC(C)(C)CO)cnn12 [I-750] | < 0.1 | > 2.5 |  |
| CNc1cc(Nc2cccn(-c3cc(C)n(C)n3)c2=O)nc2c(C(=O)N[C@H]3C[C@H]3F)cnn12 [I-137] | < 0.1 | > 50 |  |
| CNc1cc(Nc2cccnc2OC)nc2c(C(=O)NC3CCC3O)cnn12 (stereo not shown) [I-390, N-(2-hydroxycyclobutyl)-5-((2-methoxypyridin-3-yl)amino)-7-(methylamino) pyrazolo[1,5-a]pyrimidine-3-carboxamide] | < 0.1 | > 50 |  |
| CNc1cc(Nc2cccn([C@@H]3CCC[C@H](OC)C3)c2=O)nc2c(C(=O)N[C@@H]3CC[C@H]3OC)cnn12 [I-995] | < 0.1 | > 50 |  |
| CNc1cc(Nc2cc(F)cn(-c3cc(C)n(C)n3)c2=O)nc2c(C(=O)NC3CC3)cnn12 [I-384] | < 0.1 | > 0.3 |  |
| CNc1cc(Nc2cccn(-c3ccnc(C)n3)c2=O)nc2c(C(=O)N[C@@H]3C[C@@H]3F)cnn12 (stereo in doubt) [I-124, N-((1R,2S)-2-fluorocyclopropyl)-7-(methylamino)-5-((1-(2-methylpyrimidin-4-yl)-2-oxo-1,2-dihydropyridin-3-yl)amino)pyrazolo[1,5-a]pyrimidine-3-carboxamide] | < 0.1 | > 12.5 |  |
| CNc1cc(Nc2cccn(-c3ncco3)c2=O)nc2c(C(=O)NC3CC3)cnn12 [I-715] | < 0.1 | > 2.5 |  |
| CNc1cc(Nc2cccnc2OC2CC2)nc2c(C(=O)N[C@H]3C[C@H]3F)cnn12 [I-217] | < 0.1 | > 50 |  |
| CNc1cc(Nc2cccnc2OC(F)F)nc2c(C(=O)NC3CCC3)cnn12 [I-151] | < 0.1 | > 50 |  |
| CNc1cc(Nc2cccn(C3CCN(CC(F)F)CC3)c2=O)nc2c(C(=O)NC3CCC3)cnn12 [I-192] | < 0.1 | > 12.5 |  |
| CNc1cc(Nc2cc(Cl)cn(C3CCCOC3)c2=O)nc2c(C(=O)N[C@H]3C[C@H]3F)cnn12 (stereo partly shown) [I-693] | < 0.1 | > 50 |  |
